Calls of active or inactive are those of the source. The rule behind the calls is not given here.

Assay [1] deals with T1, Heat shock protein HSP90 (Homo sapiens) (UniProt P07900+P08238). Kind of assay: Inhibition of Hsp90 in human MCF7 cells assessed as induction of Hsp70 expression at 20 to 40 uM after 24 hrs by Western blotting. It counts as cell-based. (Immunoblotting shows a protein as a band on a membrane.)
Assay [2] addresses T1, Heat shock protein HSP90 (Homo sapiens). Kind of assay: Inhibition of Hsp90 in human MCF7 cells assessed as Her2 degradation at 20 to 40 uM after 24 hrs by Western blotting. The class given is cell-based.
Assay [3] has as its target ATP-dependent molecular chaperone HSP82 (Saccharomyces cerevisiae S288c, UniProt P02829). The assay can be described thus: Inhibition of yeast Hsp90 ATPase activity by ATPase assay using malachite green colorimetric method.
Assay [4] deals with MCF7. Kind of assay: Cytotoxicity against human MCF7 cells by SRB assay. It counts as functional, cell-based. In general terms: The SRB assay estimates cell density from bound dye.

ATP-dependent molecular chaperone HSP82, sequence (P02829 whole entry): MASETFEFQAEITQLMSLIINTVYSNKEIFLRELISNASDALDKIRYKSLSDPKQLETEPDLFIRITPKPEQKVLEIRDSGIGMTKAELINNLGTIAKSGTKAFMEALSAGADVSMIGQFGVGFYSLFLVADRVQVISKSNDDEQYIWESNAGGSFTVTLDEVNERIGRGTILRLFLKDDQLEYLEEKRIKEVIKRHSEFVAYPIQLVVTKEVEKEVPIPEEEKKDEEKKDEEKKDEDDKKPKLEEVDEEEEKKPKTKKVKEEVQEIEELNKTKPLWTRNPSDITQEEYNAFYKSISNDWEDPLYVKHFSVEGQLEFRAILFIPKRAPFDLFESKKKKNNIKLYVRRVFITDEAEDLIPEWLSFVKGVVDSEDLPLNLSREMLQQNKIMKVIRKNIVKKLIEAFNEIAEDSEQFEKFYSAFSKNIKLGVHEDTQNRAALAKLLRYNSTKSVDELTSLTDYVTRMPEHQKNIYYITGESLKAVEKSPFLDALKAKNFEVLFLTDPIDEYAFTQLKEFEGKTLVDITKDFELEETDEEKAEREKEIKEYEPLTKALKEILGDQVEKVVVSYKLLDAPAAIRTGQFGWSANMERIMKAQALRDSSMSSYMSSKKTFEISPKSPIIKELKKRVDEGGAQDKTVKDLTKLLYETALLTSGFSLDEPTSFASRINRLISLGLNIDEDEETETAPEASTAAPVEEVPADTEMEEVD

Regarding `CCOc1cc(/C=C2\C(=O)NC(=O)N(Cc3ccccc3)C2=O)ccc1O`, the result in assay [1] was inactive.

In the case of `O=C(CSc1nnc(-c2ccc3c(c2)OCO3)n1-c1ccccc1)c1ccccc1`, in assay [1], the outcome was inactive. Further, the result in assay [2] was Active. Moreover, the IC50 came to 15.4 µM in assay [3] and 44.6 µM in assay [4].

With `COC1=C2C[C@@H](C)C[C@H](OC)[C@H](O)[C@@H](C)/C=C(\C)[C@H](OC(N)=O)[C@@H](OC)/C=C\C=C(/C)C(=O)NC(=CC1=O)C2=O` [GELDANAMYCIN], half-maximal inhibition in assay [4] (IC50) was put at 9.6 µM. This counts as single-digit micromolar.

Regarding `O=C1NC(=O)N(c2ccccc2F)C(=O)/C1=C\c1cn(Cc2ccccc2)c2ccccc12`, the outcome in assay [1] and in assay [2] was Active. For the same compound, the IC50 in assay [3] stood at 24.6 µM; in assay [4], 18.1 µM.

Consider `O=C(CSc1nnc(-c2cccnc2)n1-c1ccccc1)NCc1ccccc1`, for which the outcome in assay [1] was inactive. Moreover, in assay [2], the outcome was Active.

As for `COc1ccc(-c2cc(-c3nnc(S)n3-c3cccc4ccccc34)[nH]n2)cc1`, the result in assay [1] was inactive. Further, in assay [2], the result was Active.

As for `Cc1cccc(N2C(=O)NC(=O)/C(=C/c3ccccc3OCC(=O)O)C2=O)c1`, in assay [1], the outcome was inactive. The outcome in assay [2] was Active.

The IC50 is the midpoint of a concentration-inhibition curve.

These data come from ChEMBL document CHEMBL1153052, “Identification of new Hsp90 inhibitors by structure-based virtual screening” (Bioorg Med Chem Lett, 2009).
